Measurements taken from patent US20240417410A1, “TRICYCLIC COMPOUNDS FOR THE TREATMENT OF CANCER” (Hoffmann-La Roche Inc., priority 2023, published 2024).

Experiments:
[1] = system: NCI-H358 cells (KRAS G12C); assay: Cell viability assay (Cell Counting Kit-8, 3-day); format: cell-based, human; conditions: Homo sapiens, NCI-H358, 72 h, NCI-H358, 72 hrs incubation
In short: (§1)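 Seed NCI-H358 5,000/well, AGS and SW620 2,000/well; overnight. Compound, 0.5% DMSO final, 72 hrs. CCK-8 2 hrs, OD450–OD650. IC50: 4-parameter fit.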

[2] = system: SW620 cells (KRAS G12V); assay: Cell viability assay (Cell Counting Kit-8, 3-day); format: cell-based, human; conditions: Homo sapiens, SW-620; SW620, 72 hrs incubation
In short: as §1

[3] = system: AGS cells (KRAS G12D); assay: Cell viability assay (Cell Counting Kit-8, 3-day); format: cell-based, human; conditions: Homo sapiens, 72 h, 72 hrs incubation
In short: as §1

[4] = target: KRAS G12C-BRAF complex (Homo sapiens (Human), UniProt P01116+P62937, G12C); assay: KRAS-BRAF with CYPA (500 nM) interaction assay (TR-FRET, Example 136); format: biochemical; conditions: KRAS G12C-BRAF disruption
[5] = system: phosphorylation of ERK, KRAS G12D in AGS cells; assay: pERK inhibition assay; format: cell-based; conditions: Homo sapiens, AGS, 4 h
In short: (§2)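 Cells in RPMI-1640 with 10% FBS were plated overnight (30,000/well H358, 20,000 AGS, 30,000 SW620) and treated 4 h with compounds at 0.5% DMSO. After formaldehyde fixation and methanol permeabilization, pERK was detected by in-cell ELISA with HRP secondary and TMB (OD450); IC50 from 4-parameter fit.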

[6] = system: phosphorylation of ERK, KRAS G12V in SW620; assay: pERK inhibition assay; format: cell-based; conditions: Homo sapiens, SW-620, 4 h, SW620 cells
In short: as §2

[7] = system: phosphorylation of ERK, KRAS G12C in NCI-H358 cells; assay: pERK inhibition assay; format: cell-based; conditions: Homo sapiens, NCI-H358, 4 h
In short: as §2

KRAS G12C-BRAF complex, sequence (P01116-2 other isoform, or with tags, fused parts or gaps G12C): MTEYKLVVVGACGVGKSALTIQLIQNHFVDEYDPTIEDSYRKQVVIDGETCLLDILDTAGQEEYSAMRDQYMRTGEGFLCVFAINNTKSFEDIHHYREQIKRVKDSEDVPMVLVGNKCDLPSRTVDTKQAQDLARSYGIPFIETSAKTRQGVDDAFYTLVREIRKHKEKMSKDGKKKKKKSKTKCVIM
KRAS G12C-BRAF complex, sequence (P62937 whole entry): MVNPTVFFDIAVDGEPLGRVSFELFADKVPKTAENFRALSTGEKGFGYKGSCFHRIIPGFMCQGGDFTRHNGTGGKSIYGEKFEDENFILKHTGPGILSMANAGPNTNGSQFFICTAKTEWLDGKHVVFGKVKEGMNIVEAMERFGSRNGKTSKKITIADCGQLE

CO[C@@H](C)c1ncc(N2CCN(CC(F)(F)F)CC2)cc1-c1c2c3cc(cc4c3n1CCC4)-c1csc(n1)C[C@H](NC(=O)[C@H]1[C@H](C)[C@@H]1C)C(=O)N1CCC[C@H](N1)C(=O)OCC(C)(C)C2 (atropisomer, axis not shown; (M)) [Example 86, (1r,2R,3S)-N-[(7S,13S)-(20M)-20-[2-[(1S)-1-methoxyethyl]-5-[4-(2,2,2-trifluoroethyl)piperazin-1-yl]-3-pyridyl]-17,17-dimethyl-8,14-dioxo-15-oxa-4-thia-9,21,30,31-tetrazahexacyclo[23.3.1.1^2,5.1^9,13.0^19,27.0^21,26]hentriaconta-1 (28),2,5 (31),19,25 (29),26-hexaen-7-yl]-2,3-dimethyl-cyclopropanecarboxamide]
IC50 [1]: 14.1 nM
IC50 [2]: 2.5 nM
IC50 [3]: 45.2 nM
IC50 [4]: 17.9 nM
IC50 [5]: 15 nM
IC50 [6]: 0.8 nM
IC50 [7]: 1.8 nM

CO[C@@H](C)c1ncc(N2CCN(CC(F)(F)F)CC2)cc1-c1c2c3cc(cc4c3n1CC(F)(F)C4)-c1csc(n1)C[C@H](NC(=O)[C@H]1[C@H](C)[C@@H]1C)C(=O)N1CCC[C@H](N1)C(=O)OCC(C)(C)C2 (atropisomer, axis not shown; (M)) [Example 87, (1r,2S,3R)-N-[(7S,13S)-23,23-difluoro-(20M)-20-[2-[(1S)-1-methoxyethyl]-5-[4-(2,2,2-trifluoroethyl)piperazin-1-yl]-3-pyridyl]-17,17-dimethyl-8,14-dioxo-15-oxa-4-thia-9,21,30,31-tetrazahexacyclo[23.3.1.1^2,5.1^9,13.0^19,27.0^21,26]hentriaconta-1 (28),2,5 (31),19,25 (29),26-hexaen-7-yl]-2,3-dimethyl-cyclopropanecarboxamide]
IC50 [1]: 30 nM
IC50 [2]: 4 nM
IC50 [3]: 58 nM
IC50 [4]: 32.6 nM
IC50 [5]: 40.6 nM
IC50 [6]: 1.5 nM
IC50 [7]: 4.8 nM

CO[C@@H](C)c1ncc(N2CCOCC2)cc1-c1c2c3cc(cc4c3n1CCO4)-c1csc(n1)C[C@H](NC(=O)[C@H]1C[C@@H]1c1cncnc1)C(=O)N1CCC[C@H](N1)C(=O)OCC(C)(C)C2 (atropisomer, axis not shown; (M)) [Example 88, (1S,2S)-N-[(7S,13S)-(20M)-20-[2-[(1S)-1-methoxyethyl]-5-morpholino-3-pyridyl]-17,17-dimethyl-8,14-dioxo-15,24-dioxa-4-thia-9,21,30,31-tetrazahexacyclo[23.3.1.1^2,5.1^9,13.0^19,27.0^21,26]hentriaconta-1 (28),2,5 (31), 19,25 (29),26-hexaen-7-yl]-2-pyrimidin-5-yl-cyclopropanecarboxamide]
IC50 [1]: 2 nM
IC50 [2]: 0.4 nM
IC50 [3]: 4 nM
IC50 [4]: 9.7 nM
IC50 [5]: 1.4 nM
IC50 [6]: 0.2 nM
IC50 [7]: 0.3 nM

CO[C@@H](C)c1ncc(N2CCOCC2)cc1-c1c2c3cc(cc4c3n1CCC4)-c1csc(n1)C[C@H](NC(=O)[C@H]1C[C@@H]1c1cccnc1)C(=O)N1CCC[C@H](N1)C(=O)OCC(C)(C)C2 (atropisomer, axis not shown; (M)) [Example 89, (1S,2S)-N-[(7S,13S)-(20M)-20-[2-[(1S)-1-methoxyethyl]-5-morpholino-3-pyridyl]-17,17-dimethyl-8,14-dioxo-15-oxa-4-thia-9,21,30,31-tetrazahexacyclo[23.3.1.1^2,5.1^9,13.0^19,27.0^21,26]hentriaconta-1 (28),2,5 (31), 19,25 (29),26-hexaen-7-yl]-2-(3-pyridyl)cyclopropanecarboxamide]
IC50 [1]: 1.5 nM
IC50 [2]: 0.3 nM
IC50 [3]: 6 nM
IC50 [4]: 6 nM
IC50 [5]: 4.8 nM
IC50 [6]: 0.4 nM
IC50 [7]: 0.6 nM

CO[C@@H](C)c1ncc(N2CCN(CC(F)(F)F)CC2)cc1-c1c2c3cc(cc4c3n1CCC4)-c1csc(n1)C[C@H](NC(=O)[C@H]1C[C@@H]1c1cccnc1)C(=O)N1CCC[C@H](N1)C(=O)OCC(C)(C)C2 (atropisomer, axis not shown; (M)) [Example 90, (1S,2S)-N-[(7S,13S)-(20M)-20-[2-[(1S)-1-methoxyethyl]-5-[4-(2,2,2-trifluoroethyl)piperazin-1-yl]-3-pyridyl]-17,17-dimethyl-8,14-dioxo-15-oxa-4-thia-9,21,30,31-tetrazahexacyclo[23.3.1.1^2,5.1^9,13.0^19,27.0^21,26]hentriaconta-1 (28),2,5 (31), 19,25 (29),26-hexaen-7-yl]-2-(3-pyridyl)cyclopropanecarboxamide]
IC50 [1]: 3.3 nM
IC50 [2]: 0.8 nM
IC50 [3]: 16.8 nM
IC50 [4]: 6.4 nM
IC50 [5]: 9.4 nM
IC50 [6]: 0.6 nM
IC50 [7]: 1.7 nM

CO[C@@H](C)c1ncc(N2CCOCC2)cc1-c1c2c3cc(cc4c3n1CC(F)(F)C4)-c1csc(n1)C[C@H](NC(=O)[C@H]1C[C@@H]1c1cccnc1)C(=O)N1CCC[C@H](N1)C(=O)OCC(C)(C)C2 (atropisomer, axis not shown; (M)) [Example 91, (1S,2S)-N-[(7S,13S)-23,23-difluoro-(20M)-20-[2-[(1S)-1-methoxyethyl]-5-morpholino-3-pyridyl]-17,17-dimethyl-8,14-dioxo-15-oxa-4-thia-9,21,30,31-tetrazahexacyclo[23.3.1.1^2,5.1^9,13.0^19,27.0^21,26]hentriaconta-1 (28),2,5 (31),19,25 (29),26-hexaen-7-yl]-2-(3-pyridyl)cyclopropanecarboxamide]
IC50 [1]: 2.8 nM
IC50 [2]: 0.6 nM
IC50 [3]: 9.7 nM
IC50 [4]: 8.1 nM
IC50 [5]: 3.2 nM
IC50 [6]: 0.6 nM
IC50 [7]: 0.5 nM

CO[C@@H](C)c1ncc(N2CCN(C)CC2)cc1-c1c2c3cc(cc4c3n1CC(F)(F)C4)-c1csc(n1)C[C@H](NC(=O)[C@H]1C[C@@H]1c1cccnc1)C(=O)N1CCC[C@H](N1)C(=O)OCC(C)(C)C2 (atropisomer, axis not shown; (M)) [Example 92]
IC50 [1]: 2.5 nM
IC50 [2]: 0.7 nM
IC50 [3]: 8.8 nM
IC50 [4]: 16 nM
IC50 [5]: 6 nM
IC50 [6]: 1 nM
IC50 [7]: 1.4 nM

CO[C@@H](C)c1ncc(N2CCN(C)CC2)cc1-c1c2c3cc(cc4c3n1CCO4)-c1csc(n1)C[C@H](NC(=O)[C@H]1C[C@@H]1c1cncnc1)C(=O)N1CCC[C@H](N1)C(=O)OCC(C)(C)C2 (atropisomer, axis not shown; (M)) [Example 93, (1S,2S)-N-[(7S,13S)-(20M)-20-[2-[(1S)-1-methoxyethyl]-5-(4-methylpiperazin-1-yl)-3-pyridyl]-17,17-dimethyl-8,14-dioxo-15,24-dioxa-4-thia-9,21,30,31-tetrazahexacyclo[23.3.1.1^2,5.1^9,13.0^19,27.0^21,26]hentriaconta-1 (28),2,5 (31), 19,25 (29),26-hexaen-7-yl]-2-pyrimidin-5-yl-cyclopropanecarboxamide]
IC50 [1]: 3 nM
IC50 [2]: 1 nM
IC50 [3]: 5 nM
IC50 [4]: 14.8 nM
IC50 [5]: 3.5 nM
IC50 [6]: 1.2 nM
IC50 [7]: 1.2 nM

CO[C@@H](C)c1ncc(N2CCOCC2)cc1-c1c2c3cc(cc4c3n1CCC4)-c1csc(n1)C[C@H](NC(=O)[C@H]1C[C@@H]1c1cncnc1)C(=O)N1CCC[C@H](N1)C(=O)OCC(C)(C)C2 (atropisomer, axis not shown; (M)) [Example 94, (1S,2S)-N-[(7S,13S)-(20M)-20-[2-[(1S)-1-methoxyethyl]-5-morpholino-3-pyridyl]-17,17-dimethyl-8,14-dioxo-15-oxa-4-thia-9,21,30,31-tetrazahexacyclo[23.3.1.1^2,5.1^9,13.0^19,27.0^21,26]hentriaconta-1 (28),2,5 (31),19,25 (29),26-hexaen-7-yl]-2-pyrimidin-5-yl-cyclopropanecarboxamide]
IC50 [1]: 2.3 nM
IC50 [2]: 0.5 nM
IC50 [3]: 6.9 nM
IC50 [4]: 6.9 nM
IC50 [5]: 2.4 nM
IC50 [6]: 0.4 nM
IC50 [7]: 0.4 nM

CO[C@@H](C)c1ncc(N2CCN(C)CC2)cc1-c1c2c3cc(cc4c3n1CC(F)(F)C4)-c1csc(n1)C[C@H](NC(=O)[C@H]1C[C@@H]1c1cncnc1)C(=O)N1CCC[C@H](N1)C(=O)OCC(C)(C)C2 (atropisomer, axis not shown; (M)) [Example 95]
IC50 [1]: 4 nM
IC50 [2]: 1.3 nM
IC50 [3]: 8.7 nM
IC50 [4]: 13.7 nM
IC50 [5]: 3.4 nM
IC50 [6]: 0.4 nM
IC50 [7]: 0.5 nM

CO[C@@H](C)c1ncc(N2CCN(C)CC2)cc1-c1c2c3cc(cc4c3n1CCO4)-c1csc(n1)C[C@H](NC(=O)[C@H]1C[C@@H]1c1cccnc1)C(=O)N1CCC[C@H](N1)C(=O)OCC(C)(C)C2 (atropisomer, axis not shown; (M)) [Example 96, (1S,2S)-N-[(7S,13S)-(20M)-20-[2-[(1S)-1-methoxyethyl]-5-(4-methylpiperazin-1-yl)-3-pyridyl]-17,17-dimethyl-8,14-dioxo-15,24-dioxa-4-thia-9,21,30,31-tetrazahexacyclo[23.3.1.1^2,5.1^9,13.0^19,27.0^21,26]hentriaconta-1 (28),2,5 (31),19,25 (29),26-hexaen-7-yl]-2-(3-pyridyl)cyclopropanecarboxamide]
IC50 [1]: 1 nM
IC50 [2]: 0.2 nM
IC50 [3]: 1.7 nM
IC50 [4]: 9.4 nM
IC50 [5]: 1.2 nM
IC50 [6]: 0.4 nM
IC50 [7]: 0.4 nM
